The record followed here is US8329675B2, “Inhibitors of fatty acid amide hydrolase” (Infinity Pharmaceuticals, Inc., priority 2006, dated 2012).

The first assay addresses T1, human FAAH (Homo sapiens, UniProt O00519).
T1 construct: host or cells: COS-7 cells, transient transfection; 13,000 g membrane fraction solubilised in 1% Triton X-100
T1 sequence (O00519 1-579): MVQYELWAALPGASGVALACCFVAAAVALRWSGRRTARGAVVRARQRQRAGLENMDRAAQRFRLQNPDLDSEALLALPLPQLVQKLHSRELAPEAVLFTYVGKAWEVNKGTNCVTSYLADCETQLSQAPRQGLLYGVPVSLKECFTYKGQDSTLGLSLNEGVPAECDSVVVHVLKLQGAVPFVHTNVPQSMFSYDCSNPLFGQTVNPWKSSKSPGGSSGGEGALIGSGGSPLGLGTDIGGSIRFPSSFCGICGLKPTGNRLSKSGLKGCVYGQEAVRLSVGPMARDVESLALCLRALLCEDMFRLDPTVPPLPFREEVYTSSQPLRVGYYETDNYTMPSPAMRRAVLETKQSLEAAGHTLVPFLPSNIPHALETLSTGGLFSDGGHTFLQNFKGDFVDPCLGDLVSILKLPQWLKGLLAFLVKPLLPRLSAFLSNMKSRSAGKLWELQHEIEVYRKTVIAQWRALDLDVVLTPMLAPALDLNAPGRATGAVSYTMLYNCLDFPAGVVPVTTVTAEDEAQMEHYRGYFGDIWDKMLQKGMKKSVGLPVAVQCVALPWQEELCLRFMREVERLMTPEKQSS
Put plainly: Human FAAH biochemical inhibition assay (AMC arachidonoyl amide fluorescence).
Conditions: not given
How it is done:
The resulting solution is added into one dish of 30-40% confluent COS-7 cells in a drop-wise manner. The COS-7 cell dish is subsequently incubated for 48 hours. The cells are then harvested.
Harvest procedure: Media was aspirated from the dishes and the cells rinsed with 10 mL PBS. The PBS was removed and 3 mLs of PBS added to the dish. The dish was scraped to resuspend the cells, and the subsequent cell suspension collected into a 15 ml conical tube. The cells were pelleted by centrifugation at 1200 rpm for 5 minutes in a bench top centrifuge. PBS was removed and the cell pellet snap frozen in liquid nitrogen, store at −80 C.
The pellets were dounce homogenized and then sonicated to produce cell extract. The cell extract was subsequently centrifuged at 1000 g to remove cellular debris. The pellet was discarded and the supernatant centrifuged at 13,000 g for 20 minutes. The pellet contained membrane bound FAAH. The supernatant was discarded and the pellet resolubilized.
(2) Re-solubilization: The fraction of interest, (13,000 g, membrane fraction) was re-suspended in re-suspension buffer (20 mM Hepes pH 7.8, 10% v/v Glycerol, 1 mM EDTA, 1% Triton X-100) (2.3 mL re-suspension and the sample incubated on ice for 1 hour and then centrifuged to at 13,000 g remove any particulate matter. The supernatant containing solubilized human FAAH was aliquoted and snap frozen in liquid nitrogen and stored at −80° C. until use.
FAAH reaction buffer: 50 mM Hepes (pH 7.5), 1 mM EDTA, 0.2% Triton X-100.
Human FAAH assay; Experimental Protocol: A 0.1 mg/mL Human FAAH solution is made up in FAAH reaction buffer, and 24 ul pipetted into a 384 well plate. To this is added 1 uL of a 3 fold serially diluted inhibitor from a DMSO stock solution. The FAAH solution and inhibitor are incubated for 30 minutes at room temperature. The FAAH reaction is initiated by the addition of 25 uL of 40 uM AMC Arachidonoyl Amide in FAAH reaction buffer, yielding a final reaction human FAAH preparation concentration of 0.05 mg/ml and AMC-Arachidonoyl substrate concentration of 20 uM, reaction volume 50 uL. The reaction is allowed to proceed for 4 hours at room temperature. […] The microtiter plate in read in the envision plate reader.
With `NCCOB(c1ccccc1)c1ccccc1` [Compound I-125], the Ki (commonly the equilibrium dissociation constant of an inhibitor or competing ligand from its target) was over 1000 nM.

Staying with this assay, now noted: Table 1, human FAAH (no asterisk); read-out: Activity (Ki).
As to `CC(=O)c1ccc(B(O)O)cc1` [Compound I-85], the inhibition constant Ki fell in the range of 10 to 1000 nM.

In the case of `OB(O)c1ccc(C(F)(F)F)cc1` [Compound I-86], the inhibitory constant (Ki) lay in the range of 10 to 100 nM.

Consider `COc1ccc(B(O)O)cc1` [Compound I-87], for which the inhibition constant (Ki) is over 1000 nM.

For the compound `OB(O)c1ccc2c(c1)OCO2` [Compound I-88], the inhibitory constant (Ki) was over 1000 nM.

Consider `OB(O)c1cncnc1` [Compound I-89], for which the Ki is over 1000 nM.

For `OB(O)c1ccncc1` [Compound I-90], the Ki was over 1000 nM.

Turning to `OB(O)c1cccnc1` [Compound I-91], the Ki was over 1000 nM.

Regarding `OB(O)c1ccsc1` [Compound I-92], the Ki is over 1000 nM.

`OB(O)c1ccco1` [Compound I-93]: the inhibitory constant (Ki) is over 1000 nM.

As to `CC(C)(C)c1ccc(B(O)O)cc1` [Compound I-94], the inhibitory constant (Ki) was in the range of 10 to 100 nM.

For `CC(C)c1ccc(B(O)O)cc1` [Compound I-95], the Ki lay within 10 to 100 nM.

For `Cc1ccc(B(O)O)cc1` [Compound I-96], the inhibitory constant (Ki) is over 1000 nM.

Regarding `CC(C)Cc1ccc(B(O)O)cc1` [Compound I-97], the inhibition constant (Ki) lay in the range of 10 to 100 nM.

With `OB(O)c1ccc2c(c1)OCCO2` [Compound I-98], the Ki lay within 10 to 1000 nM.

In the case of `OB1OCCc2ccccc21` [Compound I-99], the inhibition constant Ki is over 1000 nM.

`OB(O)c1cccc2[nH]ccc12` [Compound I-100]: the Ki is over 1000 nM.

Take `OB(O)c1ccc2cc[nH]c2c1` [Compound I-101]: the inhibitory constant (Ki) was over 1000 nM.

Consider `Cn1ccc2ccc(B(O)O)cc21` [Compound I-102], for which the Ki is over 1000 nM.

Consider `OB(O)c1ccc2c(c1)CCO2` [Compound I-103], for which the inhibitory constant (Ki) was over 1000 nM.

`O=Cc1ccc(B(O)O)c2ccccc12` [Compound I-104]: the inhibitory constant (Ki) is 10 to 1000 nM.

Regarding `OB(O)c1ccccc1F` [Compound I-105], the inhibition constant (Ki) fell in the range of 10 to 1000 nM.

As to `OB(O)/C=C/c1ccccc1` [Compound I-106], the Ki is over 1000 nM.

Turning to `OB(O)c1ccccc1` [Compound I-107], the inhibition constant (Ki) is over 1000 nM.

Consider `OB(O)c1ccc2nccn2c1` [Compound I-109], for which the Ki was over 1000 nM.

As to `Cc1ccc(B(O)O)c(F)c1` [Compound I-110], the Ki was in the range of 10 to 1000 nM.

As for `OB(O)c1cccc2ccccc12` [Compound I-111], the inhibitory constant (Ki) lay in the range of 10 to 1000 nM.

On to `OB(O)c1cccc2cccnc12` [Compound I-112], for which the Ki is over 1000 nM.

Consider `OB(O)c1cccc2ncccc12` [Compound I-113], for which the Ki was 10 to 1000 nM.

Consider `CC(C)(C)OC(=O)n1c(B(O)O)cc2cc(OCc3ccccc3)ccc21` [Compound I-114], for which the Ki is over 1000 nM.

In the case of `CC(C)(C)OC(=O)n1c(B(O)O)cc2c(OCc3ccccc3)cccc21` [Compound I-115], the inhibition constant Ki was over 1000 nM.

Take `Cn1c(B(O)O)cc2c(OCc3ccccc3)cccc21` [Compound I-116]: the Ki was over 1000 nM.

With `COc1ccc(CN(Cc2ccc(OC)cc2)S(=O)(=O)c2ccc(B(O)O)cc2)cc1` [Compound I-117], the Ki was over 1000 nM.

On to `COc1ccc(CN(Cc2ccccc2)S(=O)(=O)c2ccc(B(O)O)cc2)cc1` [Compound I-118], for which the Ki was in the range of 10 to 1000 nM.

Take `O=S(=O)(NCC1CCCCC1)c1ccc(B(O)O)cc1` [Compound I-119]: the Ki lay within 10 to 1000 nM.

With `COc1ccc(CNS(=O)(=O)c2ccc(B(O)O)cc2)cc1` [Compound I-120], the Ki was 10 to 100 nM.

Regarding `Cc1nnc(-c2ccc(B(O)O)cc2)o1` [Compound I-121], the Ki was 10 to 100 nM.

Take `COc1ccc(CNC(=O)Nc2ccc(B3OC(C)(C)C(C)(C)O3)cc2)cc1` [Compound I-122]: the Ki lay within 10 to 1000 nM.

Take `O=C(NCCc1ccccc1)c1ccc(B(O)O)cc1` [Compound I-123]: the Ki is under 10 nM.

On to `OB(O)c1ccc(OCCn2cccn2)cc1` [Compound I-124], for which the Ki fell in the range of 10 to 100 nM.

Consider `CC1(C)OB(c2ccc(/C=C\c3ccccc3)cc2)OC1(C)C` [Compound I-126], for which the inhibition constant Ki is over 1000 nM.

With `OB(O)c1ccc2[nH]ccc2c1` [Compound I-128], the Ki was over 1000 nM.

For the compound `O=C(c1ccc(Oc2ccccc2)cc1)C(F)(F)F` [Compound I-132], the inhibition constant (Ki) was over 1000 nM.

With `CC(C)(C)OC(=O)n1c(B(O)O)cc2ccccc21` [Compound I-133], the Ki is over 1000 nM.

As for `Cc1cc(OCc2ccccc2)ccc1B(O)O` [Compound I-134], the inhibitory constant (Ki) lay within 10 to 100 nM.

In the case of `OB(O)c1ccc(-c2cccs2)s1` [Compound I-135], the Ki was 10 to 1000 nM.

Consider `O=Cc1ccc(-c2ccccc2)c(F)c1` [Compound I-136], for which the Ki was over 1000 nM.

With `CCCCOc1ccc(B(O)O)c(C)c1` [Compound I-138], the Ki was in the range of 10 to 1000 nM.

Consider `OB(O)c1ccc(N2CCOCC2)cc1` [Compound I-139], for which the inhibition constant Ki was in the range of 10 to 1000 nM.

With `OB(O)c1cccc(OCc2ccccc2Cl)c1` [Compound I-140], the inhibition constant Ki was 10 to 100 nM.

With `OB(O)c1cccc(OCc2cccc(Cl)c2)c1` [Compound I-141], the inhibition constant Ki lay in the range of 10 to 100 nM.

For the compound `OB(O)c1c(F)ccc(OCc2ccccc2)c1F` [Compound I-143], the Ki was over 1000 nM.

For `OB(O)c1ccc(OCc2ccccc2)cc1F` [Compound I-146], the Ki was under 10 nM.

Consider `OB(O)c1ccc(OCc2cccc(Br)c2)c(Cl)c1` [Compound I-147], for which the inhibition constant Ki is under 10 nM.

On to `Cc1cc(B(O)O)cc(C)c1OCc1cccc(Cl)c1` [Compound I-148], for which the Ki is under 10 nM.

As to `OB(O)c1ccc(OCc2ccc(F)cc2)c(Cl)c1` [Compound I-152], the inhibition constant Ki was under 10 nM.

With `OB(O)c1ccc(OCc2cccc(Cl)c2)c(Cl)c1` [Compound I-154], the Ki was under 10 nM.

For `OB(O)c1ccc(OC2CCCCO2)cc1` (centres unmarked) [Compound I-158], the Ki is 10 to 100 nM.

Regarding `OB(O)c1ccc2c(c1)Oc1ccccc1S2` [Compound I-159], the Ki was over 1000 nM.

Take `OB(O)c1cc2ccccc2nc1Cl` [Compound I-160]: the Ki is over 1000 nM.

Regarding `CCCCCc1ccc(B(O)O)cc1` [Compound I-161], the Ki is under 10 nM.

In the case of `OB(O)c1ccc(C2CCCCC2)cc1` [Compound I-162], the Ki is under 10 nM.

`O=C(Nc1ccc(B(O)O)cc1)OCc1ccccc1` [Compound I-163]: the inhibitory constant (Ki) lay in the range of 10 to 100 nM.

Regarding `O=C(NCc1ccccc1)c1ccc(B(O)O)cc1` [Compound I-164], the inhibition constant (Ki) is under 10 nM.

Take `O=C(Nc1ccccc1)c1cccc(B(O)O)c1` [Compound I-165]: the Ki was over 1000 nM.

Take `O=C(NCc1ccco1)c1ccc(B(O)O)cc1` [Compound I-167]: the Ki lay in the range of 10 to 100 nM.

Take `OB(O)c1ccc2cc(O)ccc2c1` [Compound I-168]: the inhibition constant (Ki) lay within 10 to 100 nM.

As to `O=C(Nc1ccccc1)c1ccc(B(O)O)cc1` [Compound I-169], the Ki lay in the range of 10 to 100 nM.

For `O=C(c1ccc(B(O)O)cc1)N1CCOCC1` [Compound I-171], the inhibition constant (Ki) fell in the range of 10 to 1000 nM.

For `O=C(OCc1ccccc1)c1ccc(B(O)O)cc1` [Compound I-173], the Ki was under 10 nM.

`OB(O)c1cc2ccccc2o1` [Compound I-176]: the inhibitory constant (Ki) was over 1000 nM.

On to `OB(O)c1ccc2ccccc2c1` [Compound I-178], for which the inhibitory constant (Ki) was in the range of 10 to 100 nM.

Turning to `OB(O)c1ccc2c3c(cccc13)CC2` [Compound I-181], the Ki lay within 10 to 1000 nM.

Take `OB(O)c1ccccc1OCc1ccccc1` [Compound I-182]: the inhibitory constant (Ki) is over 1000 nM.
